The source of these data is PubChem BioAssay AID463229 (Broad Institute, 2010).

Activity calls are given as the source filed them.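 How the source made its calls: active means compounds raising the signal whose fitted half-maximal concentration is at or below their top tested dose (cut at about 25 µM in these data); inconclusive means flat fit at 30 to 70% activity, or a poor fit; inactive means the rest.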

For this assay, the system named is INS-1E rat beta cells, no cytokines, CellTiter-Glo ATP, 48 h. Kind of assay: ATP level change in INS-1E without cytokines, dose response, counter-screen for beta-cell apoptosis protection project, INS-1E rat cells, ATP luminescence, cherry pick (AID 463229). (In general: A counterscreen serves to expose hits that act by an unwanted route or on another target.)
Broadly, the AC50 is the midpoint of the concentration-response curve, whichever way the signal moves. As to `Cc1ccccc1NC(=O)/C=C/c1ccc([N+](=O)[O-])s1`, the AC50 was 6.96 µM.

Take `c1ccc(-c2nc3nonc3nc2-c2ccccc2)cc1`: the AC50 is 11.1 µM.

Take `COc1cccc(/C=N/NC(=O)C(=O)Nc2ccccc2OC(F)(F)C(F)F)c1O`: the AC50 is 6.44 µM.

Turning to `Cc1ccc(C(C)C)c(OCC(O)CN2CCc3ccccc3C2)c1` (configuration not stated), the AC50 is 9.7 µM.

In the case of `N#CC1=C(N)Oc2c(ccc3cccnc23)C1c1cccnc1` (configuration not stated), the AC50 is 7.5 µM.

`COc1cc(/C=N/N=C(N)N)ccc1OCc1ccc(Cl)cc1`: the AC50 is 7.22 µM.

For the molecule `Cc1ccccc1OCCCCn1cnc2ccccc21`, the AC50 was 7.47 µM.

Take `COc1ccc(N(C(=O)CCl)C(C(=O)NCCc2ccccc2)c2cccs2)cc1Cl` (configuration not stated): the AC50 was 7.56 µM.

Turning to `CCOC(=O)CC1CCCCN1C(=O)c1cc(COc2cccc3cnccc23)on1` (configuration not stated), the AC50 is 8.19 µM.

Regarding `O=[N+]([O-])c1c(Nc2ccc(O)cc2)cc(Cl)c2nonc12`, the AC50 is 8.76 µM.

Turning to `COc1ccc(CCNc2ncnc3c2oc2ccccc23)cc1OC`, the AC50 was 3.41 µM.

On to `Cc1sc2cc3c(c(C(=O)c4ccccc4)[n+]2c1C)-c1cccc2cccc-3c12`, for which the AC50 was 2.27 µM.

Take `Cc1cc([N+](=O)[O-])nn1Cc1ccc(C(=O)N/N=C/c2ccc(O)cc2O)cc1`: the AC50 is 6.27 µM.

Take `COc1ccc(C2C(O)C(c3c[nH]c4ccccc34)=NN2C(=O)CCl)cc1` (configuration not stated): the AC50 is 2.9 µM.

`CC(=O)NC(c1ccco1)c1cc(F)c2cccnc2c1O` (configuration not stated): the AC50 is 10.6 µM.

`O=C(Nc1cccc(NC(=O)c2cc([N+](=O)[O-])ccc2Cl)n1)c1cc([N+](=O)[O-])ccc1Cl`: the AC50 was 14.8 µM.

With `Cc1cccc(/C=N/NC(=O)c2c(-c3ccccc3)noc2C)c1O`, the AC50 was 7.61 µM.

`CCCOc1ccc(Br)cc1CSC(=N)N`: the AC50 was 8.01 µM.

Consider `O=C([O-])c1cc(-c2ccccc2)cc(-c2ccccc2)[n+]1Cc1ccccc1`, for which the AC50 was 1.98 µM.

Consider `COc1ccc(Sc2nc(-c3ccccn3)ncc2OC)cc1`, for which the AC50 was 19.3 µM.

Turning to `CC(CC(=O)N1CCN(c2cccc(Cl)c2)CC1)S(=O)(=O)c1ccc2c(c1)NC(=O)CO2` (configuration not stated), the AC50 was 7.1 µM.

Regarding `O=C(Nc1ccc(OCC(=O)N2CCC(Cc3ccccc3)CC2)cc1)c1ccco1`, the AC50 was 7 µM.

Take `O=C(Nc1cccnc1)c1ccc([N+](=O)[O-])s1`: the AC50 was 15.3 µM.

With `O=C(NCCOc1cccnc1)c1ccc(OC2CCN(Cc3ccccn3)CC2)cc1`, the AC50 was less than 0.195 µM.

As for `Cc1cc(C)nc(SCC(=O)NC2=NN=C(c3ccc(Br)cc3)CS2)n1`, the AC50 was 2.52 µM.

Turning to `Cc1ccnc(NC(=O)c2ccc([N+](=O)[O-])s2)c1`, the AC50 was 8.41 µM.

`COc1cc(/C=C2\CC/C(=C\c3cc(OC)c(O)c(OC)c3)C2=O)cc(OC)c1O`: the AC50 is 4.29 µM.

In the case of `O=C(/C=C/c1cccc(Cl)c1)c1ccc([N+](=O)[O-])o1`, the AC50 is 3.68 µM.

As to `COc1cccc(/C=N/Nc2nc3ccccc3[nH]2)c1O`, the AC50 was 8.89 µM.

As to `Cn1c(-c2ccccc2)cc2c3no[n+]([O-])c3ccc21`, the AC50 was 7.82 µM.

As for `CC(=O)N1CCc2cc(S(=O)(=O)NCCC3=CCCCC3)ccc21`, the AC50 was 7.63 µM.

As to `CCOc1ccc(S(=O)(=O)NCc2ccncc2)cc1`, the AC50 was 1.65 µM.

Consider `COc1ccc(CNC[C@@H](CCCCN(C)Cc2ccc(OC)cc2)N2C[C@H](c3ccccc3)N(CCc3ccc(Cl)c(Cl)c3)C(=O)C2=O)cc1`, for which the AC50 is 7.17 µM.

Consider `Clc1ccc(CSc2ccc(-c3ccccn3)nn2)cc1`, for which the AC50 is 6.32 µM.

Regarding `O=C(Oc1c(CN2CCOCC2)cc(Cl)c2cccnc12)c1ccc(F)cc1`, the AC50 was 14 µM.

Regarding `O=[N+]([O-])c1ccc(/C=N/n2cnc3ccccc32)s1`, the AC50 was 4.04 µM.

For the molecule `COc1ccc(C(=O)N/N=C/c2ccccc2OC(=O)c2ccccc2)cc1`, the AC50 was 7.93 µM.

For `O=C(/C(=C/c1ccc(Cl)cc1)c1nc2ccccc2[nH]1)c1cccs1`, the AC50 is 4.4 µM.

In the case of `COc1cccc(C(=O)N/N=C(/c2ccccc2)c2ccccn2)c1`, the half-maximal activity concentration (AC50) is 3.73 µM.

With `O=C(Oc1c(CN2CCOCC2)cc(Cl)c2cccnc12)c1cccs1`, the AC50 was 16 µM.

Take `Cc1cc(S(=O)(=O)NCc2ccncc2)c(C)cc1Br`: the AC50 is 6.19 µM.

For the molecule `O=C(Nc1ccccc1O)C(c1ccccc1)c1ccccc1`, the AC50 is 6.92 µM.

Take `COc1ccc(O)c(/C=N/NC(=O)c2ccc(CSc3nc(C)cc(C)n3)cc2)c1`: the AC50 was 11.2 µM.

Consider `Cc1cccc(N=Nc2ccc(O)c3ncccc23)c1`, for which the AC50 is 5 µM.

Regarding `CN(Cc1c(F)cccc1Cl)C(=O)c1cc2ccccc2o1`, the AC50 is > 26 µM (inactive).

Consider `CC(=O)/C=C1\N(C)c2ccc(C)cc2C1(C)C`, for which the AC50 was 7.3 µM.

With `COC(/C(=N/O)c1ccc(Cl)cc1)c1ccccc1` (configuration not stated), the AC50 is 2.66 µM.

`COc1ccccc1C(=O)Nc1nc(-c2ccc(S(=O)(=O)N3CCOCC3)cc2)cs1`: the AC50 is 5.29 µM.

As for `O=[N+]([O-])c1ccc(N2CCN(C(=S)NCc3ccc(Cl)cc3)CC2)cc1`, the AC50 was 10.3 µM.

Consider `O=C(N/N=C\c1cc(Cl)ccc1O)c1ccc(S(=O)(=O)N2CCCCC2)cc1`, for which the AC50 is 6.44 µM.

For `Cc1cccc(Nc2nc(NCc3ccco3)c3ccccc3n2)c1`, the AC50 was 8.03 µM.

As for `COc1ccc(/C=N/Nc2cc(C)nc3ccc(Br)cc23)cc1`, the AC50 is 7.02 µM.

For `CCCCNc1c(-c2ccc(OC)c(SC(C)CC)c2)nc2ccc(C)cn12` (configuration not stated), the AC50 was 4.44 µM.

Turning to `CC1CCC/C=C/C2CC(O)CC2C(O)/C=C/C(=O)O1` (configuration not stated), the AC50 was 0.759 µM.

In the case of `Cc1ccc(NC2=CC(=O)C(=O)c3ccccc32)cc1`, the concentration at half-maximal activity (AC50) was 7.65 µM.

On to `CN(C)C(=O)c1ccc(NC(=O)c2cccnc2)cc1`, for which the AC50 was 7.27 µM.

As to `COc1cc(/C=N/NC(=O)c2cccnc2)ccc1OC(=O)c1cc(OC)c(OC)c(OC)c1`, the AC50 is 2.51 µM.

For the molecule `N=c1ccn(Cc2ccc(Cl)cc2Cl)cc1`, the AC50 is 7.81 µM.

For the molecule `COc1ccc(C2/C=C\CN(C(=O)c3ccc(C)cc3)[C@H](Cc3ccccc3)C(=O)N2Cc2ccc(F)cc2)cc1` (some centres not stated), the AC50 was 7.33 µM.

Consider `O=C(Nc1cccc(C(F)(F)F)c1)Oc1ccc(Cl)c2cccnc12`, for which the AC50 was 7.64 µM.

For `COc1ccccc1NC(=O)CN(c1ccc(C23CC4CC(CC(C4)C2)C3)cc1)S(C)(=O)=O`, the AC50 was 5.11 µM.

As to `COc1ccc(N=Nc2ccc(O)c3ncccc23)cc1`, the AC50 is 4.26 µM.

Take `Cc1ccc([N+](=O)[O-])c(OCCN2CCCCCC2)c1`: the AC50 was 7.14 µM.

On to `Cc1ccc(C(C)C)c(OCc2nn(CC(=O)c3ccc(Cl)cc3)c3[n+]2CCCCC3)c1`, for which the AC50 is 4.55 µM.

With `CCCCCCc1cc2cc(C(=O)Nc3cccc(OC)c3)c(=O)oc2cc1O`, the AC50 was 4.41 µM.

Consider `C/C(=N\NC(=O)c1cc(-c2cccnc2)nc2ccccc12)c1ccc(O)cc1O`, for which the AC50 was 2.45 µM.

On to `Cc1cccc(NC(=O)Nc2cccc(Oc3c(F)c(F)c(F)c(F)c3F)c2)c1`, for which the AC50 was 6.96 µM.

Take `CCC(O)C1CCN(C(=O)c2cc(COc3ccc4ncccc4c3)on2)CC1` (configuration not stated): the AC50 was 5.52 µM.

As for `COc1cccc(Cn2c(NCc3ccco3)nc3c2c(=O)n(C)c(=O)n3C)c1`, the AC50 is 6.42 µM.

With `Oc1ccc(N=Nc2ccc3c(c2)OCCO3)c2ncccc12`, the AC50 was 3.75 µM.

In the case of `COc1ccc(-c2nn(-c3ccccc3)cc2/C=N/Nc2ccc3ccccc3n2)cc1OC`, the AC50 was 7.19 µM.

As to `Cc1ccc(CSC(Nc2ccc(F)cc2)=C(C#N)C#N)cc1`, the AC50 was 4.11 µM.

As to `O=C(O)c1ccc(S(=O)(=O)/N=C2\C=C(Nc3ccccc3F)C(=O)c3ccccc32)cc1`, the AC50 is 7.91 µM.

In the case of `Cc1ccc(-c2ccc(/C=C3\C(=O)ON=C3c3ccccc3)o2)c([N+](=O)[O-])c1`, the AC50 is 6.77 µM.

For the molecule `Cc1ccc(S(=O)(=O)NCc2ccncc2)cc1C`, the AC50 was 4.92 µM.

In the case of `O=C(NCc1cccnc1)c1ccc(NC(=O)c2cccc([N+](=O)[O-])c2)cc1`, the AC50 was 0.205 µM.

For `O=C(Nc1ccc(Br)c(C(F)(F)F)c1)c1ccc(C(F)(F)F)cc1`, the AC50 was 7.74 µM.

In the case of `Cc1ccc(-c2nc(NC(=O)c3nn(C)cc3[N+](=O)[O-])sc2C)cc1C`, the AC50 was 3.43 µM.

`O=C(N/N=C/c1cc(Br)c(Br)s1)c1ccncc1`: the AC50 is 9.72 µM.

`CC(C)c1nc(-c2ccccc2)c(-c2ccccc2)[nH]1`: the AC50 was 6.81 µM.

Regarding `CC[C@H]1CN2CCc3cc(OC)c(OC)cc3[C@@H]2C[C@@H]1C[C@H]1NCCc2cc(OC)c(OC)cc21`, the AC50 was 9.67 µM.

Regarding `Cc1ccc(C)c(NC(=S)NC(NC(=O)Cc2cccc3ccccc23)C(Cl)(Cl)Cl)c1` (configuration not stated), the AC50 is 5.67 µM.

For `CC(C)(C)c1ccc(C(=O)Nc2ccc(C(=O)NCc3cccnc3)cc2)cc1`, the AC50 is less than 0.195 µM.

Regarding `O=C(Nc1ccc(OC(F)F)c(Cl)c1)C(c1ccccc1)c1ccccc1`, the AC50 was 13 µM.

As to `O=C(C(Cl)Cl)N1c2ccccc2OCC1c1ccccc1` (configuration not stated), the AC50 was 8.31 µM.

On to `Cc1ccc(-c2sc(-c3ccccc3)nc2CC(=O)Nc2ccccc2F)cc1`, for which the AC50 is 2.06 µM.

Regarding `Cn1cc(C(=O)N/N=C/c2c(O)ccc3ccccc23)ccc1=O`, the AC50 was 2.5 µM.

As for `COc1ccc(-c2cc(-c3nc4ccccn4c3NCc3ccccc3)ccc2OC)cc1`, the AC50 was 0.992 µM.

In the case of `CC1CCc2c(sc3nc(C(C)(C)C)nc(N4CCN(C(=O)CCl)CC4)c23)C1` (configuration not stated), the AC50 is 7.59 µM.

Turning to `c1ccc(CCNc2nc(-c3ccccn3)nc3ccccc23)cc1`, the AC50 is 4.92 µM.

Regarding `CC1=CC2/C=C(\C)CCC(O)C(O)/C=C/C(=O)C23C(=O)NC(CC(C)C)C3C1C` (configuration not stated), the AC50 is 7.48 µM.

As to `Cc1cc(C)cc(OCC(O)CN2CCC(CN3C(=O)c4cccc5cccc(c45)C3=O)CC2)c1` (configuration not stated), the AC50 is 7.97 µM.

For `O=C(Nc1ccc(S(=O)(=O)N2CCOCC2)cc1)c1ccc([N+](=O)[O-])s1`, the AC50 is 6.8 µM.

With `CCCCNc1c(-c2cccc(-c3ccc(OC)cc3)c2)nc2ccc(C)cn12`, the AC50 was 7.32 µM.

Consider `CC(=O)Nc1ccc(S(=O)(=O)NC2=C(N3CCN(c4ccc(F)cc4)CC3)C(=O)c3ccccc3C2=O)cc1`, for which the AC50 was 7.51 µM.

`CCN(CC)CCNC(=O)c1ccc(NC(=O)c2cn(-c3ccccc3)nc2-c2cccs2)cc1`: the AC50 is 15.7 µM.

As to `Cc1ccc(S(=O)(=O)/N=C2\C=C(Nc3ccc(O)cc3)C(=O)c3ccccc32)cc1`, the AC50 is 1.91 µM.
